Measured values: PubChem BioAssay (NCI)
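Compound exposure: 48 hours, 5 concentrations, 96-well plates. GI50 marks 50% less growth. TGI: concentration producing complete growth inhibition.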

Experiments:
Experiment in all cases: NCI-60 cell line screen, 48 h
IGROV1 ovarian = test system: IGROV1 ovarian
EKVX NSCLC = test system: EKVX NSCLC
RXF 393 renal = test system: RXF 393 renal
MALME-3M melanoma = test system: MALME-3M melanoma
KM12 colon = test system: KM12 colon
A549 NSCLC = test system: A549 NSCLC
DU-145 prostate = test system: DU-145 prostate
SNB-19 CNS = test system: SNB-19 CNS
786-0 renal = test system: 786-0 renal
MOLT-4 leukemia = test system: MOLT-4 leukemia
HOP-92 NSCLC = test system: HOP-92 NSCLC
T-47D breast = test system: T-47D breast
U251 CNS = test system: U251 CNS
OVCAR-8 ovarian = test system: OVCAR-8 ovarian
BT-549 breast = test system: BT-549 breast
LOX IMVI melanoma = test system: LOX IMVI melanoma
HCT-15 colon = test system: HCT-15 colon
SW-620 colon = test system: SW-620 colon
OVCAR-4 ovarian = test system: OVCAR-4 ovarian
HS 578T breast = test system: HS 578T breast
SK-MEL-2 melanoma = test system: SK-MEL-2 melanoma
SK-OV-3 ovarian = test system: SK-OV-3 ovarian
M14 melanoma = test system: M14 melanoma
TK-10 renal = test system: TK-10 renal
COLO 205 colon = test system: COLO 205 colon
CAKI-1 renal = test system: CAKI-1 renal
SK-MEL-5 melanoma = test system: SK-MEL-5 melanoma
SF-295 CNS = test system: SF-295 CNS
NCI/ADR-RES ovarian = test system: NCI/ADR-RES ovarian
NCI-H460 lung = test system: NCI-H460 lung
HOP-62 NSCLC = test system: HOP-62 NSCLC
A498 renal = test system: A498 renal
SF-539 CNS = test system: SF-539 CNS
HCT-116 colon = test system: HCT-116 colon
SF-268 CNS = test system: SF-268 CNS
RPMI-8226 leukemia = test system: RPMI-8226 leukemia
NCI-H226 lung = test system: NCI-H226 lung
OVCAR-5 ovarian = test system: OVCAR-5 ovarian
HT29 colon = test system: HT29 colon
HCC-2998 colon = test system: HCC-2998 colon
SN12C renal = test system: SN12C renal
ACHN renal = test system: ACHN renal
MCF7 breast = test system: MCF7 breast
OVCAR-3 ovarian = test system: OVCAR-3 ovarian
MDA-MB-435 = test system: MDA-MB-435
SK-MEL-28 melanoma = test system: SK-MEL-28 melanoma
UACC-257 melanoma = test system: UACC-257 melanoma
NCI-H522 lung = test system: NCI-H522 lung
UO-31 renal = test system: UO-31 renal
UACC-62 melanoma = test system: UACC-62 melanoma
MDA-MB-231 breast = test system: MDA-MB-231 breast
NCI-H23 lung = test system: NCI-H23 lung
PC-3 prostate = test system: PC-3 prostate
SNB-75 CNS = test system: SNB-75 CNS
HL-60(TB) leukemia = test system: HL-60(TB) leukemia

CN1CCN(CCCOc2cccc3nc(Nc4ccc(Cl)c(F)c4)ccc23)CC1
GI50 (IGROV1 ovarian): 1950 nM
TGI (IGROV1 ovarian): 4310 nM
GI50 (EKVX NSCLC): 1890 nM
TGI (EKVX NSCLC): 3860 nM
GI50 (RXF 393 renal): 1960 nM
TGI (RXF 393 renal): 4040 nM
GI50 (MALME-3M melanoma): 1920 nM
TGI (MALME-3M melanoma): 4050 nM
GI50 (KM12 colon): 1770 nM
TGI (KM12 colon): 3430 nM
GI50 (A549 NSCLC): 1960 nM
TGI (A549 NSCLC): 3650 nM
GI50 (DU-145 prostate): 1750 nM
TGI (DU-145 prostate): 3190 nM
GI50 (SNB-19 CNS): 1860 nM
TGI (SNB-19 CNS): 3530 nM
GI50 (786-0 renal): 1670 nM
TGI (786-0 renal): 3220 nM
GI50 (MOLT-4 leukemia): 1820 nM
TGI (MOLT-4 leukemia): 3770 nM
GI50 (HOP-92 NSCLC): 1330 nM
TGI (HOP-92 NSCLC): 5270 nM
GI50 (T-47D breast): 1780 nM
TGI (T-47D breast): 4020 nM
GI50 (U251 CNS): 1810 nM
TGI (U251 CNS): 3280 nM
GI50 (OVCAR-8 ovarian): 2020 nM
TGI (OVCAR-8 ovarian): 3650 nM
GI50 (BT-549 breast): 2400 nM
TGI (BT-549 breast): 7730 nM
GI50 (LOX IMVI melanoma): 1640 nM
TGI (LOX IMVI melanoma): 3170 nM
GI50 (HCT-15 colon): 1400 nM
TGI (HCT-15 colon): 2790 nM
GI50 (SW-620 colon): 1970 nM
TGI (SW-620 colon): 3710 nM
GI50 (OVCAR-4 ovarian): 3130 nM
TGI (OVCAR-4 ovarian): 12400 nM
GI50 (HS 578T breast): 2120 nM
TGI (HS 578T breast): 5770 nM
GI50 (SK-MEL-2 melanoma): 1880 nM
TGI (SK-MEL-2 melanoma): 3700 nM
GI50 (SK-OV-3 ovarian): 1790 nM
TGI (SK-OV-3 ovarian): 3440 nM
GI50 (M14 melanoma): 1730 nM
TGI (M14 melanoma): 3370 nM
GI50 (TK-10 renal): 1810 nM
TGI (TK-10 renal): 3280 nM
GI50 (COLO 205 colon): 1700 nM
TGI (COLO 205 colon): 3340 nM
GI50 (CAKI-1 renal): 2530 nM
TGI (CAKI-1 renal): 8470 nM
GI50 (SK-MEL-5 melanoma): 1780 nM
TGI (SK-MEL-5 melanoma): 3170 nM
GI50 (SF-295 CNS): 1790 nM
TGI (SF-295 CNS): 3460 nM
GI50 (NCI/ADR-RES ovarian): 1800 nM
TGI (NCI/ADR-RES ovarian): 3770 nM
GI50 (NCI-H460 lung): 1910 nM
TGI (NCI-H460 lung): 3700 nM
GI50 (HOP-62 NSCLC): 1450 nM
TGI (HOP-62 NSCLC): 3260 nM
GI50 (A498 renal): 2390 nM
TGI (A498 renal): 8280 nM
GI50 (SF-539 CNS): 1530 nM
TGI (SF-539 CNS): 3040 nM
GI50 (HCT-116 colon): 1560 nM
TGI (HCT-116 colon): 3030 nM
GI50 (SF-268 CNS): 1720 nM
TGI (SF-268 CNS): 3460 nM
GI50 (RPMI-8226 leukemia): 2550 nM
TGI (RPMI-8226 leukemia): 5880 nM
GI50 (NCI-H226 lung): 2050 nM
TGI (NCI-H226 lung): 4140 nM
GI50 (OVCAR-5 ovarian): 1550 nM
TGI (OVCAR-5 ovarian): 3260 nM
GI50 (HT29 colon): 1410 nM
TGI (HT29 colon): 2800 nM
GI50 (HCC-2998 colon): 1520 nM
TGI (HCC-2998 colon): 3070 nM
GI50 (SN12C renal): 4160 nM
TGI (SN12C renal): 16000 nM
GI50 (ACHN renal): 1660 nM
TGI (ACHN renal): 3070 nM
GI50 (MCF7 breast): 1310 nM
TGI (MCF7 breast): 2770 nM
GI50 (OVCAR-3 ovarian): 1700 nM
TGI (OVCAR-3 ovarian): 3290 nM
GI50 (MDA-MB-435): 1610 nM
TGI (MDA-MB-435): 3140 nM
GI50 (SK-MEL-28 melanoma): 1720 nM
TGI (SK-MEL-28 melanoma): 3210 nM
GI50 (UACC-257 melanoma): 2040 nM
TGI (UACC-257 melanoma): 3640 nM
GI50 (NCI-H522 lung): 1750 nM
TGI (NCI-H522 lung): 3330 nM
GI50 (UO-31 renal): 1570 nM
TGI (UO-31 renal): 3320 nM
GI50 (UACC-62 melanoma): 2050 nM
TGI (UACC-62 melanoma): 4100 nM
GI50 (MDA-MB-231 breast): 1680 nM
TGI (MDA-MB-231 breast): 3390 nM
GI50 (NCI-H23 lung): 1750 nM
TGI (NCI-H23 lung): 3430 nM
GI50 (PC-3 prostate): 1760 nM
TGI (PC-3 prostate): 3410 nM

NC(=O)c1ncn(CC2(CO)CCC2)c1N
GI50 (SNB-75 CNS): 10800 nM

O=C(CCCn1c(=O)c2sc3ccccc3c2n2nnc(-c3ccccc3)c12)NCCc1cnc[nH]1
GI50 (EKVX NSCLC): 2700 nM
TGI (EKVX NSCLC): 8770 nM
GI50 (RXF 393 renal): 2520 nM
TGI (RXF 393 renal): 5020 nM
GI50 (MALME-3M melanoma): 2490 nM
TGI (MALME-3M melanoma): 5490 nM
GI50 (DU-145 prostate): 1550 nM
TGI (DU-145 prostate): 2980 nM
GI50 (SNB-19 CNS): 1710 nM
TGI (SNB-19 CNS): 5040 nM
GI50 (T-47D breast): 1400 nM
TGI (T-47D breast): 4490 nM
GI50 (U251 CNS): 1060 nM
TGI (U251 CNS): 2240 nM
GI50 (OVCAR-8 ovarian): 320 nM
TGI (OVCAR-8 ovarian): 2790 nM
GI50 (BT-549 breast): 17300 nM
TGI (BT-549 breast): 41500 nM
GI50 (LOX IMVI melanoma): 1590 nM
TGI (LOX IMVI melanoma): 2930 nM
GI50 (HCT-15 colon): 1260 nM
TGI (HCT-15 colon): 2510 nM
GI50 (HL-60(TB) leukemia): 1410 nM
TGI (HL-60(TB) leukemia): 6360 nM
GI50 (SK-OV-3 ovarian): 3440 nM
TGI (SK-OV-3 ovarian): 15700 nM
GI50 (COLO 205 colon): 1100 nM
TGI (COLO 205 colon): 4800 nM
GI50 (CAKI-1 renal): 181 nM
TGI (CAKI-1 renal): 1710 nM
GI50 (SK-MEL-5 melanoma): 1910 nM
TGI (SK-MEL-5 melanoma): 4110 nM
GI50 (SNB-75 CNS): 1860 nM
TGI (SNB-75 CNS): 4030 nM
GI50 (NCI/ADR-RES ovarian): 3220 nM
TGI (NCI/ADR-RES ovarian): > 100000 nM
GI50 (NCI-H460 lung): 1870 nM
TGI (NCI-H460 lung): 3800 nM
GI50 (HOP-62 NSCLC): 2320 nM
TGI (HOP-62 NSCLC): 5270 nM
GI50 (A498 renal): 1550 nM
TGI (A498 renal): 3000 nM
GI50 (SF-539 CNS): 664 nM
TGI (SF-539 CNS): 2190 nM
GI50 (HCT-116 colon): 341 nM
TGI (HCT-116 colon): 1660 nM
GI50 (SF-268 CNS): 1770 nM
TGI (SF-268 CNS): 3720 nM
GI50 (NCI-H226 lung): 18600 nM
TGI (NCI-H226 lung): 37700 nM
GI50 (HT29 colon): 1360 nM
TGI (HT29 colon): 3160 nM
GI50 (HCC-2998 colon): 1770 nM
TGI (HCC-2998 colon): 4150 nM
GI50 (SN12C renal): 271 nM
TGI (SN12C renal): 1870 nM
GI50 (ACHN renal): 1660 nM
TGI (ACHN renal): 3020 nM
GI50 (MCF7 breast): 1450 nM
TGI (MCF7 breast): 3080 nM
GI50 (OVCAR-3 ovarian): 1520 nM
TGI (OVCAR-3 ovarian): 3180 nM
GI50 (MDA-MB-435): 1490 nM
TGI (MDA-MB-435): 3060 nM
GI50 (SK-MEL-28 melanoma): 1750 nM
TGI (SK-MEL-28 melanoma): 3200 nM
GI50 (UACC-257 melanoma): 2040 nM
TGI (UACC-257 melanoma): 4580 nM
GI50 (NCI-H522 lung): 1060 nM
TGI (NCI-H522 lung): 11700 nM
GI50 (UACC-62 melanoma): 1910 nM
TGI (UACC-62 melanoma): 3560 nM
GI50 (MDA-MB-231 breast): 1920 nM
TGI (MDA-MB-231 breast): 3610 nM
GI50 (NCI-H23 lung): 2920 nM
TGI (NCI-H23 lung): 11600 nM
